Reference: paper PMC5743070 (The Journal of Biological Chemistry, 2017)

What was measured:
[1] = biological target: T1, TTD–PHD (UHRF1_126–366) (Homo sapiens, UniProt Q96T88); experiment: ITC of H3 peptide binding to TTD–PHD
T1 construct: His tag (TEV-cleavable) (N); made in house
T1 sequence (Q96T88 126-366): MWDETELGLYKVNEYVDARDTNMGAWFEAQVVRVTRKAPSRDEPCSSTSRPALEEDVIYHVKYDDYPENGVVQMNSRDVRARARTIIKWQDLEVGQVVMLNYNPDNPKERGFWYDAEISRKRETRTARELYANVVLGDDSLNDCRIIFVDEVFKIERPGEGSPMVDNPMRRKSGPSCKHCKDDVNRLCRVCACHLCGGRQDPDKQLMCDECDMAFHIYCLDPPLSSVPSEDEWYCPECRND
Method: A preliminary peptide injection of 0.06 μl was followed by subsequent 2-μl injections into the sample cell containing 167 μl of 50 μM TTD–PHD. Where indicated, 1.5 mM BPC or 1.5 mM PBR peptide was included in the injection syringe and sample cell. The reported KD and n values are based on the average from two measurements. For ITC measurements of TTD (UHRF1_121–286) interaction with BPC, the protein was buffered in 20 mM Tris (pH 7.4), 50 mM NaCl, and 5% DMSO. BPC was brought to a concentration of 2.5 mM and injected into the sample cell containing 40 μM protein. The data were acquired on a Nano ITC from TA Instruments at 25 °C and fitted with an independent-binding site model using NanoAnalyze software (v3.7.0).
ITC curves showing TTD-PHD binding to methylated (red) and unmethylated (black) H3 peptide.
(1 picture or pasted object on this page, not shown here)

[2] = biological target: T1, TTD–PHD (UHRF1_126–366); experiment: SAXS of TTD–PHD in the presence of BPC
Method: All SAXS samples were buffered in 20 mM Tris (pH 7.5), 150 mM NaCl, 5 mM DTT, 5 mM β-mercaptoethanol, 2 mM TCEP and 10 μM ZnCl2, and data were collected at concentrations ranging from ∼1 to 5 mg/ml. Measurements were carried out at Beamline 12-ID-B of the Advanced Photon Source, Argonne National Laboratory. The energy of the X-ray beam was 14 Kev (wavelength λ = 0.8856 Å), and two setups (small- and wide-angle X-ray scattering) were used simultaneously in which the sample to 2M detector distance was adjusted to achieve scattering q values of 0.006 < q < 2.6 Å^−1, where q = (4π/λ)sinθ, and 2θ is the scattering angle. To reduce radiation damage and obtain good statistics, thirty 2D images were recorded for each buffer or sample solution using a flow cell, with an accumulated exposure time of 0.4–2.0 s. No radiation damage was observed as confirmed by the absence of systematic signal changes in sequentially collected X-ray scattering images. The scattering profile of the protein was calculated by subtracting the background buffer contribution from the […] using the program PRIMUS (ATSAS package, EMBL) ([35]). Concentration series measurements for a sample were carried out to remove the scattering contribution caused by interparticle interactions and to extrapolate the data to infinite dilution. Guinier analysis and the experimental radius of gyration (Rg) estimation from the data of infinite dilution were performed using PRIMUS. The pair distance distribution function, P(r), and the maximum dimension of the protein, Dmax, in real space were calculated with the indirect Fourier transform using the program GNOM ([36]). To avoid underestimation of the molecular dimension and consequent distortion in low resolution structural reconstruction, the parameter Dmax, the upper end of distance r, was chosen such that the resulting PDDF has a short, near zero-value tail at large r. The Rg from P(r) analysis was also reported. The molecular weights were estimated using Vc ([37]) in the q range of 0 < q < 0.3 Å^−1. Fifteen ab initio shape reconstructions (molecular envelopes) were generated using DAMMIF ([38]) and averaged with DAMAVER ([39]). The structural models were superimposed and overlaid with the averaged envelope using SUPCOMP ([40]). The theoretical scattering intensity of a structural model was calculated and fitted to the experimental scattering intensity using CRYSOL ([41]).
Table S1 (related to Fig. 1, S1, S4): SAXS parameters for the TTD-PHD module SAXS HTG-TTD-PHDa TTD-PHD/BPCb […]
b UHRF1126-366 in complex with BPC (2 mM, 4% DMSO) […]
d Rg calculated using Guinier fit e Rg calculated using GNOM (5) f Maximum distance between atoms from GNOM g Volume of correlation (6) h Mw estimated from SAXS data using Vc (6). The Mw expected from sequence is shown in parentheses i Normalized spatial discrepancy. The values are the average and standard deviation from fifteen runs

[3] = biological target: T1, TTD–PHD (UHRF1_126–366); experiment: (1H-15N) TROSY NMR titration of TTD–PHD; format: binding
Method: Exchange broadening is clearly observed for Arg^282, Gly^284, Asp^291, Asn^292, Met^294, and Ser^301 amide resonances at 1:3 protein/BPC ratios, with perturbations also seen with Gly^286 and Gly^299 (Fig. 4 and supplemental Fig. S6).
NMR samples were buffered in 20 mM sodium phosphate (pH 7.5), 150 mM NaCl, 5 mM DTT, 5 mM β-mercaptoethanol, 2 mM TCEP, and 10 μM ZnSO4. The protein concentration was between 200 and 300 μM for all samples. The data were collected at 25 °C on Bruker spectrometers equipped with cryoprobes and operating at 500, 600, or 800 MHz. The assignment of backbone TTD–PHD resonances was accomplished using the ABACUS method ([29]) for which standard backbone and ^15N-edited NOESY spectra were collected using ^15N/^13C/^2H- or ^15N/^13C-labeled protein. All 3D experiments were acquired using non-uniform sampling and processed using the software MDDGUI ([30]) or qMDD ([31]). ^15N-Labeled TTD–PHD was used to acquire ^15N T1 and T2 relaxation and ^1H-^15N heteronuclear NOE measurements ([32]) collected using standard Bruker pulse schemes in an interleaved manner. For T1 measurements, the variable delay was set to 0.1, 0.4, 0.8, 1.5, 2.0, 2.5, 3.5, and 5 s. For T2 measurements, the variable delay was set to 16, 32, 48, 64, 80, 96, 128, and 144 ms. The D1 was 3 s for all experiments. Reported values were the average from two measurements. All spectra were processed using NMRPipe ([33]) and analyzed with SPARKY ([34]).

[4] = solubility (statement); format: physicochemical
[5] = 2 mM BPC, 4% DMSO, GNOM, Table S1

N=C(N)N1CCC(Cc2ccccc2)CC1 [BPC, 4-benzylpiperidine-1-carboximidamide]
effect on TTD–PHD binding affinity for the histone peptide ([1]; 1.5 mM BPC (4% DMSO) or 1.5 mM PBR peptide, H3K9me3(1–15)): reduces the TTD–PHD binding affinity for the histone peptide | increase of KD for H3K9me3 (effect of added ligand) ([1]; 1.5 mM BPC or PBR peptide in syringe and cell, vs apo TTD–PHD): ~5 fold | Dmax of TTD-PHD with BPC [2, 5]: 94 Å | Rg real (GNOM) of TTD-PHD with BPC [2, 5]: 27.1 Å | Rg (Guinier fit) of TTD-PHD with BPC ([2]; 2 mM BPC, 4% DMSO, Guinier fit, Table S1): 26.6 Å | Vc (volume of correlation) of TTD-PHD with BPC ([2]; 2 mM BPC, 4% DMSO, Table S1): 280.5 | Rg (Guinier fit) of TTD–PHD with BPC ([2]; 4 mM BPC, 4% DMSO, 20 mM Tris pH 7.5, 150 mM NaCl, Guinier fit, apo 24.5): 27.1 Å | Vc (volume of correlation) of TTD–PHD with BPC ([2]; 4 mM BPC, 4% DMSO, apo 274.3): 284.4 | Rg real (GNOM) of TTD–PHD with BPC ([2]; 4 mM BPC, 4% DMSO, from GNOM, apo 24.9): 27.2 Å | Dmax of TTD–PHD with BPC ([2]; 4 mM BPC, 4% DMSO, from GNOM, apo 83): 94 Å | shallow secondary shoulder of pair-distance distribution function ([2]; TTD–PHD with BPC (4 mM, 4% DMSO)): ~50 Å | effect on linker resonances of TTD–PHD ([3]; (1H-15N) TROSY, ~250 μM protein/750 μM ligand): significant conformational broadening and/or movement of amide peaks | effect on TTD–PHD conformation ([3]; Fig. 4): promote open TTD–PHD conformations | solubility [4]: highly soluble
